The assay addresses 5-HT2A receptors (UniProt P14842). Nature of the assay: in-vitro affinity to 5-HT2A receptors, [3H]ketanserine displacement (Example A1). Format: binding. The source says:
The 5-HT2A receptors are exposed both to [^3H]ketanserine (a substance known for its affinity to the receptor) and also to the test compound. The decrease in the affinity of [^3H]ketanserine to the receptor is an indication of the affinity of the test substance to the 5-HT2A receptor.
In the case of `Fc1ccc(-c2ccc(-n3ncc(CNCCc4ccccn4)c3-c3ccco3)cc2)cc1` [Example 604, [1-(4′-Fluorobiphenyl-4-yl)-5-furan-2-yl-1H-pyrazol-4-ylmethyl]-(2-pyridin-2-ylethyl)amine], the 50% inhibitory concentration (IC50) stood at 26 nM. In other words, the double-digit nanomolar range.

In turn, `Cc1noc(C)c1-c1c(CN2CCC(O)C2)cnn1-c1ccc(-c2ccc(F)cc2)cc1` (centres unmarked) [Example 690, 1-[5-(3,5-Dimethylisoxazol-4-yl)-1-(4′-fluorobiphenyl-4-yl)-1H-pyrazol-4-ylmethyl]pyrrolidin-3-ol] gave an IC50 of 240 nM.

The molecule `COCCN1CCN(Cc2cnn(-c3ccc(-c4ccc(F)cc4)cc3)c2-c2ccoc2)CC1` [Example 664, 1-[1-(4′-Fluorobiphenyl-4-yl)-5-furan-3-yl-1H-pyrazol-4-ylmethyl]-4-(2-methoxyethyl)piperazine] displayed an IC50 of 85 nM.

Molecule `CN1CCN(Cc2cnn(-c3ccc(-c4ccc(F)cc4)cc3)c2-c2ccncc2)CC1` [Example 629, 1-[1-(4′-Fluorobiphenyl-4-yl)-5-pyridin-4-yl-1H-pyrazol-4-ylmethyl]-4-methylpiperazine] displayed an IC50 of 37 nM. Compared with the last molecule, the IC50 is about 2.3-fold lower.

With `CC1CCCN1Cc1cnn(-c2ccc(-c3ccc4c(c3)OCCO4)cc2)c1-c1ccco1` (centres unmarked) [Example 594, 1-[4-(2,3-Dihydrobenzo-1,4-dioxin-6-yl)phenyl]-5-furan-2-yl-4-(2-methylpyrrolidin-1-ylmethyl)-1H-pyrazole], the IC50 is 21 nM.

For the molecule `NC1CCN(Cc2cnn(-c3ccc(-c4ccc5c(c4)OCO5)cc3)c2-c2ccco2)CC1` [Example 631, 1-[1-(4-Benzo-1,3-dioxol-5-ylphenyl)-5-furan-2-yl-1H-pyrazol-4-ylmethyl]piperidin-4-ylamine], the IC50 was found to be 39 nM.

`Cc1noc(C)c1-c1c(CN2CCNCC2)cnn1-c1ccc(-c2ccc(F)cc2)cc1` [Example 691, 1-[5-(3,5-Dimethylisoxazol-4-yl)-1-(4′-fluorobiphenyl-4-yl)-1H-pyrazol-4-ylmethyl]piperazine] registered an IC50 of 250 nM. Against the preceding molecule, the IC50 is about 6.4-fold higher.

`CN1CCN(Cc2cnn(-c3ccc(-c4ccc(F)cc4)cc3)c2-n2cccc2)CC1` [Example 658, 1-[1-(4′-Fluorobiphenyl-4-yl)-5-pyrrol-1-yl-1H-pyrazol-4-ylmethyl]-4-methylpiperazine] had an IC50 of 74 nM.

In the case of `Cc1ccoc1-c1c(CN2CCN(C(=O)OC(C)(C)C)CC2)cnn1-c1ccc(-c2ccc(F)cc2)cc1` [Example 689, tert-Butyl 4-[1-(4′-fluorobiphenyl-4-yl)-5-(3-methyl-2-furanyl)-1H-pyrazol-4-ylmethyl]piperazine-1-carboxylate], the IC50 stood at 220 nM.

In turn, `CN1CCN(Cc2cnn(-c3ccc(-c4ccccc4F)cc3)c2-c2ccco2)CC1` [Example 599, 1-[1-(2′-Fluorobiphenyl-4-yl)-5-furan-2-yl-1H-pyrazol-4-ylmethyl]-4-methylpiperazine] registered an IC50 of 25 nM.

For `OCCCCNCc1cnn(-c2ccc(-c3ccc(F)cc3)cc2)c1-c1ccco1` [Example 617, 4-{[1-(4′-Fluorobiphenyl-4-yl)-5-furan-2-yl-1H-pyrazol-4-ylmethyl]amino}butan-1-ol], the IC50 came to 32 nM.

Molecule `COc1ccc(-c2ccc(-n3ncc(CNCc4cc5ccccc5n4C)c3-c3ccco3)cc2)cc1` [Example 695, [5-Furan-2-yl-1-(4′-methoxybiphenyl-4-yl)-1H-pyrazol-4-ylmethyl]-(1-methyl-1H-indol-2-ylmethyl)amine] yielded an IC50 of 300 nM.

`CCCCN(Cc1cnn(-c2ccc(-c3ccc(F)cc3)cc2)c1-c1ccco1)Cc1cnn(-c2ccc(-c3ccc(F)cc3)cc2)c1-c1ccco1` [Example 622, Butylbis-[1-(4′-fluorobiphenyl-4-yl)-5-furan-2-yl-1H-pyrazol-4-ylmethyl]amine]: the IC50 stood at 34 nM.

Turning to `COc1ccc(-c2ccc(-n3ncc(CNCc4ccncc4)c3-c3ccco3)cc2)cc1` [Example 615, [5-Furan-2-yl-1-(4′-methoxybiphenyl-4-yl)-1H-pyrazol-4-ylmethyl]pyridin-4-ylmethylamine], the IC50 is 32 nM.

These data come from US7842695B2, “Substituted pyrazole compounds” (Merck Patent GmbH, priority 2003, dated 2010).
